Assay results as given in article PMC3089467 (Nucleic Acids Research, 2011).

Target: T1, HhaI DNA cytosine-5 methyltransferase (M.HhaI) (Haemophilus parahaemolyticus, UniProt P05102)
T1 sequence (P05102 1-327): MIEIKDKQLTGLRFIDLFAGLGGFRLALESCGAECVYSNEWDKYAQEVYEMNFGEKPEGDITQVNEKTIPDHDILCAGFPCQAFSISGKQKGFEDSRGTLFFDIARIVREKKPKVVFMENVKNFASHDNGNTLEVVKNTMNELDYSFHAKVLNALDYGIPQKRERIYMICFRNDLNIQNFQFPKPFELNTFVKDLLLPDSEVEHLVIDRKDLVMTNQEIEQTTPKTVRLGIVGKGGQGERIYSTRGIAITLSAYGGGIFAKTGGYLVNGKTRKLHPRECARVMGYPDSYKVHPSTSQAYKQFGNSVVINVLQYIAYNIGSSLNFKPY
Assay: stopped-flow absorbance, ternary complex with DNA
Assay type: binding
Settings: 100 µM AdoHcy; cognate GCGC/GMGC duplex; pH 7.4, 25 °C

## Nc1ncnc2c1ncn2[C@@H]1O[C@H](CSCC[C@H](N)C(=O)O)[C@@H](O)[C@H]1O [AdoHcy]
  stopped-flow absorbance, ternary complex with DNA: The remaining signal is regained upon addition of AdoHcy to the preformed M.HhaI–DNA complex
